Columns and labels:
[1] = tested on: human platelet rich plasma; test: Inhibition of human platelet aggregation, "Born"-method using single cuvettes; format: cell-based; conditions: 0.1 h, ADP-induced aggregation, 6 minutes
Protocol: Inhibition of Human Platelet Aggregation
Alternatively to a binding assay which measures a compound's ability to bind to the P2Y12 receptor, the effect on cellular function was also determined. This ability of the compound was evaluated in two platelet aggregation assays: in 96-well plates and with the “Born”-method using single cuvettes.
Whole blood was collected from healthy volunteers using 20 ml syringes containing 2 ml of buffered Citrate. The anticoagulated whole blood was transferred into 15 ml polypropylene conical tubes (10 ml per tube). The tubes were centrifuged for 15 minutes at 340×g at RT without using the centrifuge brake. This procedure leads to a pellet of cellular components and a supernatant of platelet rich plasma (PRP). The PRP layer was collected from each tube and pooled for each donor. To avoid carry over of cellular components following centrifugation, approximately 5 ml of PRP was left in the tube. The platelet concentration was determined using a Coulter Counter.
The 15 ml tubes containing the pellet of cellular components were centrifuged again for 10 minutes at 1940×g. This pelleted out most particulate blood constituents remaining, leaving a layer of Platelet Poor Plasma (PPP). The PPP was collected for each donor. The PRP layer, previously set aside, was diluted with PPP to a final concentration of approximately 3×E8 platelets/ml with the PPP.
The human platelet aggregation assay is performed in single use cuvettes using the platelet aggregation profiler (PAP-4 or -8, Bio/Data corporation).
In the assay cuvette 4 μl of test compound at 100× final concentration in DMSO is mixed with 392 μl fresh PRP and incubated for 2 minutes at 37° C. with 1.200 rpm stirring. Following that incubation period, 4 μl of 250 μM ADP is added to the reaction mix. This addition of ADP is sufficient to induce aggregation in the absence of an inhibitor. After that aggregation is measured over 6 minutes at 37° C. with 1.200 rpm stirring. Results of the assay are expressed as % inhibition, and are calculated using maximum aggregation (Tmax) or area under curve (AUC) of the absorbance over 6 minutes.
The IC50 data of the above described platelet aggregation assay using human platelet rich plasma for exemplary compounds of the present invention are shown in table 3.

[2] = tested on: human platelet rich plasma; test: Inhibition of human platelet aggregation, 96-well assay; format: cell-based; conditions: Homo sapiens, Platelet, 20 min
Summary of the method: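 ADP-induced aggregation read as 650 nm absorbance every minute for 20 min at 37 °C, with shaking between reads. PRP (~3×E8 platelets/ml, diluted with PPP, ACD-A blood from healthy volunteers) was exposed to compound for 5 min before adding a 40 μM ADP stock (15 μl into 150 μl).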

human P2Y12 receptor = human P2Y12 receptor (Homo sapiens, UniProt Q9H244); test: Human P2Y12 recombinant cell membrane binding assay with 33P 2MeS-ADP; conditions: competition against 33P 2MeS-ADP, membranes of CHO cells with recombinant human P2Y12 receptor
Summary of the method: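 Competition binding against radiolabeled 2MeS-ADP (1.61 nM as added) on membranes from recombinant human P2Y12 CHO cells, 20 min RT after 15 min compound preincubation, pH 7.4. Filtration then scintillation counting; compounds tested in triplicate from 10 μM final, five-fold dilutions, curve fit with plate-defined min/max.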

Sequence of human P2Y12 receptor (Q9H244 whole entry): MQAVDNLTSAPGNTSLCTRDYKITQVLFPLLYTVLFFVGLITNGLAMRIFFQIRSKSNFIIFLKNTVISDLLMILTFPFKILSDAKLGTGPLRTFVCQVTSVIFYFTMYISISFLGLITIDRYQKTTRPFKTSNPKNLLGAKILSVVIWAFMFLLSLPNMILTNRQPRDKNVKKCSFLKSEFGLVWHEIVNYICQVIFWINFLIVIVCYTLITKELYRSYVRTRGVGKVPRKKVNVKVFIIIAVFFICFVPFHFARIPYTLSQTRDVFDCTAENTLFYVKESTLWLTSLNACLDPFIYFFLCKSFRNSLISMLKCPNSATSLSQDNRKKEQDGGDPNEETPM

IC50 [1] [nM]	IC50 [2] [nM]	IC50 (human P2Y12 receptor) [nM]	SMILES
130	130	16	CCCCOC(=O)N1CCN(C(=O)[C@H](COCC)NC(=O)c2cc(OCC(=O)N3CCC[C@H]3C(=O)NC3CCC3)n(-c3ccccc3)n2)CC1 [Example 227, 4-[(S)-2-({5-[2-((S)-2-Cyclobutylcarbamoyl-pyrrolidin-1-yl)-2-oxo-ethoxy]-1-phenyl-1H-pyrazole-3-carbonyl}-amino)-3-ethoxy-propionyl]-piperazine-1-carboxylic acid butyl ester]
2.6	30	5	CCCCOC(=O)N1CCN(C(=O)[C@H](CCC(=O)O)NC(=O)c2cc(OCC(=O)N3CCC[C@H]3C(=O)NCC(F)(F)F)n(-c3ccccc3)n2)CC1 [Example 123, 4-{(S)-4-Carboxy-2-[(5-{2-[(S)-2-(2,2,2-trifluoro-ethylcarbamoyl)-pyrrolidin-1-yl]-2-oxo-ethoxy}-1-phenyl-1H-pyrazole-3-carbonyl)-amino]-butyryl}-piperazine-1-carboxylic acid butyl ester]
5.8	30	10	CCCCOC(=O)N1CCN(C(=O)[C@H](CCC(=O)O)NC(=O)c2cc(OCC(=O)N3CCC[C@H]3C(=O)NCC(F)F)n(-c3ccccc3)n2)CC1 [Example 121, 4-{(S)-4-Carboxy-2-[(5-{2-[(S)-2-(2,2-difluoro-ethylcarbamoyl)-pyrrolidin-1-yl]-2-oxo-ethoxy}-1-phenyl-1H-pyrazole-3-carbonyl)-amino]-butyryl}-piperazine-1-carboxylic acid butyl ester]
25	20	9	CCCCOC(=O)N1CCN(C(=O)[C@H](CCC(=O)O)NC(=O)c2cc(OCC(=O)N3CCC[C@H]3C(=O)NC3CC3)n(-c3ccccc3)n2)CC1 [Example 118, 4-[(S)-4-Carboxy-2-({5-[2-((S)-2-cyclopropylcarbamoyl-pyrrolidin-1-yl)-2-oxo-ethoxy]-1-phenyl-1H-pyrazole-3-carbonyl}-amino)-butyryl]-piperazine-1-carboxylic acid butyl ester]
91	60	172	CCCNC(=O)[C@@H]1CCCN1C(=O)COc1cc(C(=O)N[C@@H](CCC(=O)O)C(=O)N2CCN(C(=O)OCC)CC2)nn1-c1ccccc1 [Example 9, 4-{(S)-4-Carboxy-2-[(5-{2-[(S)-2-propylcarbamoyl-pyrrolidin-1-yl]-2-oxo-ethoxy}-1-phenyl-1H-pyrazole-3-carbonyl)-amino]-butyryl}-piperazine-1-carboxylic acid ethyl ester]
33	20	8	CCCOC(=O)N1CCN(C(=O)[C@H](CCC(=O)O)NC(=O)c2cc(OCC(=O)N3CCC[C@H]3C(=O)NC3CCC3)n(-c3ccccc3)n2)CC1 [Example 162, 4-[(S)-4-Carboxy-2-({5-[2-((S)-2-cyclobutylcarbamoyl-pyrrolidin-1-yl)-2-oxo-ethoxy]-1-phenyl-1H-pyrazole-3-carbonyl}-amino)-butyryl]-piperazine-1-carboxylic acid propyl ester]
210	10	55	CCOC(=O)N1CCN(C(=O)[C@H](CCC(=O)O)NC(=O)c2cc(OCC(=O)N3CCC[C@H]3C(=O)NC3CCC3)n(-c3cccc(F)c3)n2)CC1 [Example 73, 4-((S)-4-Carboxy-2-{[5-[2-((S)-2-cyclobutylcarbamoyl-pyrrolidin-1-yl)-2-oxo-ethoxy]-1-(3-fluoro-phenyl)-1H-pyrazole-3-carbonyl]-amino}-butyryl)-piperazine-1-carboxylic acid ethyl ester]
120	210	59	CCOC(=O)N1CCN(C(=O)[C@H](CCO)NC(=O)c2cc(OCC(=O)N3CCC[C@H]3C(=O)NC3CCC3)n(-c3ccccc3)n2)CC1 [Example 115, 4-[(S)-2-({5-[2-((S)-2-Cyclobutylcarbamoyl-pyrrolidin-1-yl)-2-oxo-ethoxy]-1-phenyl-1H-pyrazole-3-carbonyl}-amino)-4-hydroxy-butyryl]-piperazine-1-carboxylic acid ethyl ester]
21	10	3	CCCCOC(=O)N1CCN(C(=O)[C@H](CCC(=O)O)NC(=O)c2cc(OCC(=O)N3CCC[C@H]3C(=O)NCC3CC3)n(-c3ccccc3)n2)CC1 [Example 120, 4-[(S)-4-Carboxy-2-({5-[2-((S)-2-cyclopropylmethylcarbamoyl-pyrrolidin-1-yl)-2-oxo-ethoxy]-1-phenyl-1H-pyrazole-3-carbonyl}-amino)-butyryl]-piperazine-1-carboxylic acid butyl ester]
60	20	70	CCOC(=O)N1CCN(C(=O)[C@H](CC(=O)O)NC(=O)c2cc(OCC(=O)N3CCC[C@H]3C(=O)NCC3CC3)n(-c3ccccc3)n2)CC1 [Example 55, 4-{(S)-3-Carboxy-2-[(5-{2-[(S)-2-(cyclopropylmethyl-carbamoyl)-pyrrolidin-1-yl]-2-oxo-ethoxy}-1-phenyl-1H-pyrazole-3-carbonyl)-amino]-propionyl}-piperazine-1-carboxylic acid ethyl ester]
180	50	93	CCOC(=O)N1CCN(C(=O)[C@H](CCC(=O)O)NC(=O)c2cc(O[C@H](C)C(=O)N3CCC[C@H]3C(=O)NC3CC3)n(-c3ccccc3)n2)CC1 [Example 61, 4-[(S)-4-Carboxy-2-({5-[(R)-2-((S)-2-cyclopropylcarbamoyl-pyrrolidin-1-yl)-1-methyl-2-oxo-ethoxy]-1-phenyl-1H-pyrazole-3-carbonyl}-amino)-butyryl]-piperazine-1-carboxylic acid ethyl ester]
39	30	129	CCOC(=O)N1CCN(C(=O)[C@H](CCC(=O)O)NC(=O)c2cc(OC(C)C(=O)N3CCC[C@H]3C(=O)NCC(F)(F)F)n(-c3ccccc3)n2)CC1 (stereo partly drawn) [Example 53, 4-{(S)-4-Carboxy-2-[(5-{1-methyl-2-oxo-2-[(S)-2-(2,2,2-trifluoro-ethylcarbamoyl)-pyrrolidin-1-yl]-ethoxy}-1-phenyl-1H-pyrazole-3-carbonyl)-amino]-butyryl}-piperazine-1-carboxylic acid ethyl ester]
530	380	146	CCOC(=O)N1CCN(C(=O)[C@H](CCC(=O)O)NC(=O)c2cc(OCC(=O)N3CCC[C@H]3c3nc(C)c[nH]3)n(-c3ccccc3)n2)CC1 [Example 172, 4-{(S)-4-Carboxy-2-[(5-{2-[(S)-2-(4-methyl-1H-imidazol-2-yl)-pyrrolidin-1-yl]-2-oxo-ethoxy}-1-phenyl-1H-pyrazole-3-carbonyl)-amino]-butyryl}-piperazine-1-carboxylic acid ethyl ester]
30	70	19	CCCCOC(=O)N1CCN(C(=O)[C@H](CCOC)NC(=O)c2cc(OCC(=O)N3CCC[C@H]3C(=O)NC3CCC3)n(-c3ccccc3)n2)CC1 [Example 231, 4-[(S)-2-({5-[2-((S)-2-Cyclobutylcarbamoyl-pyrrolidin-1-yl)-2-oxo-ethoxy]-1-phenyl-1H-pyrazole-3-carbonyl}-amino)-4-methoxy-butyryl]-piperazine-1-carboxylic acid butyl ester]
72	100	50	CCOC(=O)N1CCN(C(=O)[C@H](CCC(=O)O)NC(=O)c2cc(OCC(=O)N3CCC[C@H]3C(=O)NCC3CCC3)n(-c3ccccc3)n2)CC1 [Example 20, 4-{(S)-4-Carboxy-2-[(5-{2-[(S)-2-(cyclobutylmethyl-carbamoyl)-pyrrolidin-1-yl]-2-oxo-ethoxy}-1-phenyl-1H-pyrazole-3-carbonyl)-amino]-butyryl}-piperazine-1-carboxylic acid ethyl ester]
150	90	5	CCCCOC(=O)N1CCN(C(=O)[C@H](CCC(=O)OCC)NC(=O)c2cc(OCC(=O)N3CCC[C@H]3C(=O)NC3CCC3)n(-c3ccccc3)n2)CC1 [Example 143, 4-[(S)-2-({5-[2-((S)-2-Cyclobutylcarbamoyl-pyrrolidin-1-yl)-2-oxo-ethoxy]-1-phenyl-1H-pyrazole-3-carbonyl}-amino)-4-ethoxycarbonyl-butyryl]-piperazine-1-carboxylic acid butyl ester]
